Reference: patent US20040002506A1, “Novel class of cytodifferentiating agents and histone deacetylase inhibitors, and methods of use thereof” (Sloan Kettering Institute for Cancer Research, priority 1999, published 2004)

System: Murine erythroleukemia (MEL) cells
Assay: MEL cell differentiation assay (benzidine assay, 5-day culture)
Assay type: cell-based
Details: Table 2, "No inh" = words
Experimental: Murine erythroleukemia (MEL) cell differentiation. The MEL cell differentiation assay was used to assess the ability of Compound 1 to induce terminal differentiation. MEL cells (logarithmically dividing) were cultured with the indicated concentrations of Compound 1. Following a 5-day culture period, cell growth was determined using a Coulter Counter and differentiation was determined microscopically using the benzidine assay to determine hemoglobin protein accumulation on a per cell basis.
The MEL cell differentiation assay was used to assess the ability of Compound 2 to induce terminal differentiation. MEL cells (logarithmically dividing) were cultured with the indicated concentrations of Compound 2. Following a 5-day culture period differentiation was determined microscopically using the benzidine assay to determine hemoglobin protein accumulation on a per cell basis.
The MEL cell differentiation assay was used to assess the ability of Compound 3 to induce terminal differentiation. MEL cells (logarithmically dividing) were cultured with the indicated concentrations of Compound 3. Following a 5-day culture period differentiation was determined microscopically using the benzidine assay to determine hemoglobin protein accumulation on a per cell basis.
The MEL cell differentiation assay was used to assess the ability of Compound 4 to induce terminal differentiation. MEL cells (logarithmically dividing) were cultured with the indicated concentrations of Compound 4. Following a 5-day culture period differentiation was determined microscopically using the benzidine assay to determine hemoglobin protein accumulaiton on a per cell basis.
All the compounds which were prepared were tested. […] Table 2 is compiled from experiments similar to the experiments described in Examples 7-10 above.

SMILES	MEL cell growth (cell count) [cells/ml × 10^−5]
O=C(/C=C/c1cccc(CC(=O)Nc2ccccc2)c1)NO [Structure 689]	2.0
O=C(/C=C/c1cccc(C(C(=O)Nc2cccc3cccnc23)C(=O)Nc2cccc3cccnc23)c1)NO [Structure 690]	2.5
O=C(CCCCCC(C(=O)Nc1ccc2ncccc2c1)C(=O)Nc1ccc2ncccc2c1)NO [Structure 692]	18.0
